Reference: US20140154182A1 (priority 2011, published 2014)

Legend:
[1] = format: in vivo, B6C3 mice; conditions: for organ with the highest uptake: 5 min following tracer injection, blood, heart, lungs, liver, kidney; for DAR (differential absorption ratio), cerebellum / DAR (differential absorption ratio), cerebral cortex / DAR (differential absorption ratio), hippocampus / DAR (differential absorption ratio), prefrontal cortex / DAR (differential absorption ratio), striatum: 5 min post-injection, i.v.; for DAR (differential absorption ratio), cerebellum / DAR (differential absorption ratio), cerebral cortex / DAR (differential absorption ratio), hippocampus / DAR (differential absorption ratio), prefrontal cortex / DAR (differential absorption ratio), striatum / time of highest ratio of radioactivity uptake between forebrain regions and the cerebellum: mice; for clearance of radioactivity from the brain: mouse, in vivo; for time of highest ratio of radioactivity uptake between forebrain regions and the cerebellum: post-injection
Method: Male, 7-9 weeks old, B6C3 mice were used in all experiments. Animals were anaesthetized with an i.p. injection of Hypnorm/dormicum (12 ml/kg), after which [^18F]PK209 (as prepared in Example 26) (19.0±1.1 MBq at t0) or [^11C]PK083 (as prepared in Example 22) (24.4±3.5 MBq at t0) was administered via the tail vein, in a saline solution containing 10% ethanol (5 ml/kg). Following the injections, mice were killed by cervical dislocation at 5, 10, 30, or 60 min (n=4−6). At each time point, blood was obtained by heart punctures and selected organs, including the heart, liver, kidneys, lungs and brain were removed. The brain was further dissected into prefrontal cortex, striatum, cerebral cortex, hippocampus and cerebellum. All organs and brain areas were weighed, and recovered radioactivity was determined with a Compugamma (LKB Wallac), using 5×10 μl aliquots of the injected formulation as standard. Results are expressed as the differential absorption ratio (DAR): (cpm recovered/g tissue)/(cpm injected/g body weight). Two-way repeated measures ANOVA, followed by LSD post-hoc analysis was used for between-region (or organ) comparisons of radiotracer uptake at different time points.

[2] = physchem; format: physicochemical; conditions: 1-octanol / 0.2M phosphate buffer pH 7.4, room temperature, triplicate; read-out: LogDoct,7.4
Method: The distribution of the radio labeled compounds between 1-octanol and 0.2M phosphate buffer (pH=7.4) was measured in triplicate at room temperature. Briefly, 1 mL of a 20 MBq/mL solution of the radio labeled compound in 0.2M phosphate buffer (pH=7.4) was vigorously mixed with 1 mL of 1-octanol for 1 min at room temperature using a vortex. After a settling period of 30 min, five samples of 100 μL were taken from both layers. For determining recovery, 5 samples of 100 μL were taken from the 20 MBq/mL solution. All samples were counted for radioactivity. The LogDoct,7.4 value was calculated according to LogDoct,7.4=^10Log(Aoct/Abuffer), where Aoct and Abuffer represent the average radioactivity counted of the 5 1-octanol and 5 buffer samples, respectively.

[3] = molecular target: NMDAR ion channel; experiment: Competition binding assay against [3H]MK-801 in rat forebrain membranes; conditions: against 5 nM [3H]MK-801; mean±SEM of 2-6 independent determinations, each in triplicate
Method: Male Wistar rats (150-200 g) were killed by decapitation. The forebrains were rapidly removed and homogenized using a DUALL tissue homogenizer (10 strokes, 2000 rpm), in a 7-fold excess (v/w) of ice-cold 0.25 M sucrose. The nuclei and cell debris were removed by centrifugation (10 min x 400×g) in a Sorvall RC-6 refrigerated centrifuge (rotor SA600). The supernatant was decanted and the resulting pellet was rehomogenized in 5 vol 0.25 M sucrose and recentrifuged. The combined supernatants were diluted in Tris-acetate buffer (50 mM, pH 7.4) to a final dilution of 40 v/w, and centrifuged for 30 min×30,000×g, in order to obtain membranes from the cell surface, mitochondrial, and microsomal fractions. The pellet was resuspended in 20 vol of 50 mM Tris buffer containing 0.04% Triton X-100 (pH 7.4), and was kept at 25° C. for 2 hr before recentrifugation. The resulting pellet was suspended in Tris-HCl buffer (dilution 4, pH 7.4) and stored at −80° C. in 5 ml aliquots. On the day of each experiment, membranes were thawed to room temperature and washed twice by centrifugation (30 min×200,000×g). After the final centrifugation step, pellets were suspended in 50 mM Tris-HCl buffer (pH 7.4) and further diluted to 40 vol of buffer per g original weight wet tissue for competition binding experiments.
Protein concentration was determined using the BCA protein kit (Sigma-Aldrich, The Netherlands).
In vitro competition binding experiments were performed using 5 nM [^3H]MK-801 (specific activity 22.5 Ci/mmol; PerkinElmer, USA). All compounds as prepared in the Examples and listed in Table 2 were dissolved as 10 mM stock solutions in DMSO, and used in a concentration range from 10^−4 to 10^−12 M, with a maximal DMSO concentration of 1%. Competition binding experiments were conducted at room temperature, in a final volume of 500 μl assay buffer (50 mM Tris-HCl, pH 7.4), containing 1 μM L-glutamate and glycine. The incubation mixture was composed of 400 μl membrane suspension (protein concentration 1 μg/μL), 50 μL [^3H]MK-801, 45 μl assay buffer and 5 μl unlabeled drug solution. Nonspecific binding was determined in the presence of 30 μM GMOM. Incubations were terminated overnight by filtration, using a 48-well Brandel harvester and Whatman GF/B filters, presoaked in 0.3% polyethyleneimine. The filters were washed three times with 3 ml of ice-cold Tris-HCl buffer (pH 7.4), and radioactivity was subsequently determined by liquid scintillation spectrometry in 5 mL of Optiphase-HiSafe 3, at an efficiency of 40%.
Ki values were determined by nonlinear regression analysis using the equation: log EC50=log [10̂log Ki*(1+RadioligandNM/HotKdNM)], (GraphPad Software Inc., San Diego, Calif.).
In this table the Ki for the different compounds is stated. The Ki as measured against 5 nM [^3H]MK-801 and represent the mean±SEM Ki values of 2-6 independent determinations, each conducted in triplicate, The indexes (b), (c) and (d) describe the form in which the compound was tested: (b) fumaric acid salt, (c) free base, (d) hydrochloric acid salt.

[4] = test system: NMDA receptors; experiment: Ex vivo autoradiography and MK-801 blocking study; format: in vivo, mice
Method: To visualize the distribution and specificity of [^18F]PK209 or [^11C]PK083 for NMDA receptors, anaesthetized mice were injected with either saline or MK-801 (0.6 mg/kg, i.p.), 10 min before a tail-vein injection of each of the radiolabeled compounds (n=2). 5 min following injection of [^11C]PK083 or 15 min after [^18F]PK209 injection, mice were killed by cervical dislocation, and their brains were removed, frozen in liquid nitrogen and processed for quantitative autoradiography. Briefly, 20 μm coronal brain sections were cut at 300 μm intervals, from rostral to caudal areas. Sections from each mouse were opposed to Kodak Biomax MR-1 film, either immediately or following 2×30 sec washes in ice-cold Tris-HCl buffer (pH 7.4) and a dip in ice-cold demi water. Films were developed after 24 hr, and relevant optical density (ROD) values were obtained using the MCID software. Sections from control and MK-801 treated mice were processed in parallel. All brain regions were identified by reference to the mouse atlas of Franklin and Paxinos (2001).
Reference is made to FIG. 3. […] FIG. 3A the [^18F]209 specific binding (relevant optical density) is shown for (from left to right) frontal cortex, striatum, hippocampus, cerebral cortex and cerebellum. In FIG. 3B representative images are shown for (from bottom to top) cerebellum, hippocampus, striatum, cerebral cortex and frontal cortex.
Specific binding was defined as that […] pretreatment with MK-801 (0.6 mg/kg i.p.). […] Specific [^18F]PK-209 binding constituted 10% and 8% of total binding values in the hippocampus and the cerebral cortex, respectively.

[5] = quantitative autoradiography, relevant optical density

CSc1ccc(Cl)c(NC(=N)N([11CH3])c2cccc(OC(F)F)c2)c1 [[^11C]PK083, 1-(2-chloro-5-(methylthio)phenyl)-3-^11C-methyl-3-(3-(difluoromethoxy)phenyl)guanidine]
organ with the highest uptake [1]: lungs | DAR (differential absorption ratio), cerebellum [1]: 0.55±0.07 | DAR (differential absorption ratio), cerebral cortex [1]: 0.83±0.11 | DAR (differential absorption ratio), hippocampus [1]: 1.41±0.46 | DAR (differential absorption ratio), prefrontal cortex [1]: 0.96±0.16 | DAR (differential absorption ratio), striatum [1]: 0.86±0.13 | clearance of radioactivity from the brain [1]: rapidly cleared | time of highest ratio of radioactivity uptake between forebrain regions and the cerebellum [1]: 5 min | logD [2]: 1.76 ± 0.01

CSc1ccc(Cl)c(NC(=N)N(C)c2cccc(OC(F)(F)F)c2)c1 [compound 19, 3-(2-chloro-5-(methylthio)phenyl)-1-methyl-1-(3-(trifluoromethoxy)phenyl)guanidine]
Ki [3]: 12 ± 2 nM

COc1cccc(N(C)C(=N)Nc2cc(SC)ccc2Cl)c1 [compound 14, reference compound]
Ki [3]: 21.7 ± 2.2 nM

CSc1ccc(Cl)c(NC(=N)N(C)c2cccc(OC(F)F)c2)c1 [compound 18, 3-(2-chloro-5-(methylthio)phenyl)-1-(3-(difluoromethoxy)phenyl)-1-methylguanidine]
Ki [3]: 10 ± 2 nM

CSc1ccc(Cl)c(NC(=N)N(C)c2cccc(O)c2)c1 [compound 17, 3-(2-chloro-5-(methylthio)phenyl)-1-(3-hydroxyphenyl)-1-methylguanidine]
Ki [3]: 551 ± 57.8 nM

CSc1ccc(Cl)c(NC(=N)N(C)c2cccc(OCCCF)c2)c1 [compound 23, 3-(2-chloro-5-(methylthio)phenyl)-1-(3-(3-fluoropropoxy)phenyl)-1-methylguanidine]
Ki [3]: 179 ± 39 nM

CSc1ccc(Cl)c(NC(=N)N(C)c2cccc(OC[18F])c2)c1 [[^18F]PK209]
organ with the highest uptake [1]: lungs | DAR (differential absorption ratio), cerebellum [1]: 0.84±0.09 | DAR (differential absorption ratio), cerebral cortex [1]: 1.17±0.07 | DAR (differential absorption ratio), hippocampus [1]: 1.05±0.09 | DAR (differential absorption ratio), prefrontal cortex [1]: 1.19±0.10 | DAR (differential absorption ratio), striatum [1]: 1.19±0.15 | clearance of radioactivity from the brain [1]: cleared rapidly | time of highest ratio of radioactivity uptake between forebrain regions and the cerebellum [1]: 15 min | specific binding as share of total binding, cerebral cortex ([4]; 15 min after injection, MK-801 0.6 mg/kg i.p. pretreatment): 8% | binding level, cerebellum [4, 5]: moderate | binding level, cerebral cortex [4, 5]: high | binding level, frontal cortex [4, 5]: low | binding level, hippocampus [4, 5]: high | binding level, striatum [4, 5]: low | logD [2]: 1.45 ± 0.02

CSc1ccc(Cl)c(NC(=N)N(C)c2cccc(OC(F)(F)C(F)F)c2)c1 [compound 20, 3-(2-chloro-5-(methylthio)phenyl)-1-methyl-1-(3-(1,1,2,2-tetrafluoroethoxy)phenyl)guanidine]
Ki [3]: 56.7 ± 6.2 nM

CSc1ccc(Cl)c(NC(=N)Nc2cccc(OC(F)F)c2)c1 [compound 7, 1-(2-chloro-5-(methylthio)phenyl)-3-(3-(difluoromethoxy)phenyl)guanidine]
Ki [3]: 147 ± 15 nM

CSc1ccc(Cl)c(NC(=N)Nc2cccc(OC(F)(F)F)c2)c1 [compound 8, 1-(2-chloro-5-(methylthio)phenyl)-3-(3-(trifluoromethoxy)phenyl)guanidine]
Ki [3]: 235 ± 55.5 nM
